Reference: patent US12227511B2, “Bicyclic compounds as kinase modulators, methods and uses thereof” (Agency for Science, Technology and Research, priority 2018, dated 2025)

What was measured:
[1] = tested on: hepatocellular carcinoma (HCC); conditions: HCC patients, cited from earlier work
[2] = tested on: hepatocellular carcinoma (HCC); conditions: HCC patients taking Stivarga (Regorafenib); cited from earlier work
[3] = tested on: hepatocellular carcinoma (HCC); conditions: clinical; cited from earlier work
HCCLM3 cells = assay: GI50 in HCCLM3 cells, cell viability by MTS assay; format: cell-based; conditions: Homo sapiens, 72 hours incubation, triplicates, read-out: HCCLM3 activity range (GI50)
Procedure: To investigate the effects of compounds on hepatocellular carcinoma (HCC) cell viability, HCCLM3 cells (HCC cells with high metastatic potential) were incubated with increasing concentrations of test compounds for 72 hours. Cell viability was evaluated at the end of incubation period by MTS assay. […] All samples were evaluated in triplicates.
As set forth in Table 1 below, GI50 values are defined as follows: GI50≤10 μM (+++); GI50>10 μM and ≤20 μM (++); GI50>20 μM (+).

SMILES | GI50 (HCCLM3 cells) | further results
CNC(=O)c1cc(Oc2ccc(NC(=O)Nc3ccc(Cl)c(C(F)(F)F)c3)cc2)ccn1 [Sorafenib] |  | increase of survival rate compared to a placebo ([1]; Sorafenib vs placebo): 2.8 months; median survival rate ([1]; Sorafenib): about 10.7 months
CNC(=O)c1cc(Oc2ccc(NC(=O)Nc3ccc(Cl)c(C(F)(F)F)c3)c(F)c2)ccn1 [Regorafenib] |  | median overall survival [2]: about 10.6 months
COc1cc2nccc(Oc3ccc(NC(=O)C4(C(=O)Nc5ccc(F)cc5)CC4)cc3)c2cc1OC [Cabozantinib] |  | incidence of adverse events (AEs) compared to Regorafenib [3]: higher incidence of adverse events
COc1cc2nccc(Oc3ccc(NC(=O)C4(C(=O)N5[C@@H]6CC[C@H]5C[C@H](C#N)C6)CC4)cc3)c2cc1OC [Compound 21, EXO-1-(3-cyano-8-azabicyclo[3.2.1]octane-8-carbonyl)-N-(4-((6,7-dimethoxyquinolin-4-yl)oxy)phenyl)cyclopropane-1-carboxamide] | > 20 µM | 
COc1cc2nccc(Oc3ccc(NC(=O)C4(C(=O)NC56CC(N)(C5)C6)CC4)cc3)c2cc1OC [Compound 12, N-(3-aminobicyclo[1.1.1]pentan-1-yl)-N-(4-((6,7-dimethoxyquinolin-4-yl)oxy)phenyl)cyclopropane-1,1-dicarboxamide] | > 20 µM | 
COc1cc2nccc(Oc3ccc(NC(=O)C4(C(=O)N5[C@@H]6CC[C@H]5C[C@@H](OC)C6)CC4)cc3)c2cc1OC [Compound 19, N-(4-((6,7-dimethoxyquinolin-4-yl)oxy)phenyl)-1-((1R,3r,5S)-3-methoxy-8-azabicyclo[3.2.1]octane-8-carbonyl)cyclopropane-1-carboxamide] | > 20 µM | 
COc1cc2nccc(Oc3ccc(NC(=O)C45CC(C(=O)NC67CCC(CC6)C7)(C4)C5)cc3)c2cc1OC [Compound 34, N1-((1s,4s)-bicyclo[2.2.1]heptan-1-yl)-N3-(4-((6,7-dimethoxyquinolin-4 yl)oxy)phenyl)bicyclo[1.1.1]pentane-1,3-dicarboxamide] | > 20 µM | 
COc1cc2nccc(Oc3ccc(NC(=O)C4(C(=O)NC56CC(O)(C5)C6)CC4)cc3)c2cc1OC [Compound 6, N-(4-((6,7-dimethoxyquinolin-4-yl)oxy)phenyl)-N-(3-hydroxybicyclo[1.1.1]pentan-1-yl)cyclopropane-1,1-dicarboxamide] | > 20 µM | 
CCOC(=O)[C@@H]1C2CCC(CC2)[C@H]1NC(=O)C1(C(=O)Nc2ccc(Oc3ccnc4cc(OC)c(OC)cc34)cc2)CC1 [Compound 16, ethyl (2R,3R)-3-(1-((4-((6,7-dimethoxyquinolin-4-yl)oxy)phenyl)carbamoyl)cyclopropane-1-carboxamido)bicyclo[2.2.2]octane-2-carboxylate] | > 20 µM | 
